From patent US11559565B2, “Methods for treating inflammatory disorders and traumatic brain injury using stabilized non-hematopoietic EPO short peptides” (United States Government as Represented By The Department …, priority 2005, dated 2023)
No end group written: not given here.

Tests used:
[1] = Deaths, clinical morbidity, blood chemistries and signs of toxicity in treated EAE mice; type: in vivo, SJL/J mice
Experimental: An EAE model was established in strain SJL/J mice that is characterized by a relapsing-remitting clinical course. […] Immediately after immunization, animals received an intravenous injection of 200 ng Bordetella pertussis toxin in 200 μl PBS. Animals were weighed daily and assessed for clinical signs of EAE by two independent observers.
[…] Blood was collected for 5 weeks to document changes in hematocrit.

[2] = test system: brain injured mice (controlled cortical impact); experiment: Controlled cortical impact traumatic brain injury, TUNEL positive cells in the injured hemisphere; conditions: for number of dying (TUNEL positive) cells: i.p. within 30 minutes of trauma for 3 days, both 3 and 8 days post injury, p<0.001 and p<0.01
Excerpt: C57BL/6 mice were anesthetized with isofurane/oxygen inhalation and placed in a stereotaxic frame. The head position was established in the horizontal plane and a craniotomy (4 mm) was produced lateral to the sagittal suture between lambda and bregma, with the dura mater left intact over the cortex. A cortical contusion injury was produced utilizing a pneumatically driven 2.5 mm diameter rod tip at 3.5 m/s to a depth of 1 mm with a dwell time of 400 ms (Precision System Instruments TBI-0300 Impactor, Lexington, Ky.). After injury, a 5 mm disk constructed from dental cement was placed over the craniotomy site and adhered to the skull using cyanocrylate. During the early post-operative phase, animal temperature was maintained by placing the animals on heating pads.
Mice in the whole molecule EPO group received 5000 U/kg body weight rhEPO (Epoetin alpha, Amgen, Thousand Oaks, Calif.) intraperitoneally (i.p.). […] Mice in the PBS and sham-operated groups received 200 μl filtered sterile PBS.
Mice were sacrificed at 3 days or 8 days post-injury; brains were collected and immediately frozen on dry ice. The frozen brains were serially sectioned in coronal cuts onto 15 slides with 12 sections (16 μm thickness) per slide extending from the anterior to the posterior edge of the lesion. Sections were placed such that each individual slide contained a representative sampling of the entire lesion within the injured hemisphere.
Cell death in the mouse brains was detected using a modification of the Apoptag® (Millipore, Billerica, Mass.) in situ TUNEL method. Cryosections (16 μm thickness) were mounted and fixed in 100% acetone for 10 minutes. The slides were rehydrated and post-fixed in 2:1 ethanol:acetic acid for 11 minutes at −20° C., and then washed thoroughly in Stop/Wash Buffer (Apoptag®). Slides were incubated with equilibration buffer for 10 minutes immediately followed by working strength TdT enzyme (33 parts enzyme/77 parts buffer (Apoptag®)) for 60 minutes at 37° C. The TUNEL reaction was detected with Cy3 anti-digox (1:200; Jackson Immunoresearch, West Grove, Pa.).
Micrographs of the processed slides were acquired with a fluorescent Olympus BX60 microscope fitted with a Retiga 2000R digital camera at 10 times magnification. The total number of TUNEL positive cells in lesioned hemispheres and the total area of the brain containing the TUNEL positive cells were quantified using digital imaging software (I.P. lab 4.0, Becton Dickinson, Franklin Lakes, N.J.).
The animals were sacrificed after 3 or 8 days and the injured forebrain lesions were serially sectioned. Cell death within the damaged hemisphere was quantified by DNA fragmentation (TUNEL stain) to determine the degree of neuroprotection. Serial sections containing the entire lesion site and the TUNEL labeled peri-lesional zone were photographed, digitized, and the images used to quantify the number of positive cells by IP lab 4.0 Software (Becton Dickinson, Franklin Lakes, N.J.).
Mice were sacrificed 3 days post-TBI. The effect of treatment delay was determined by TUNEL staining.

[3] = set-up: species or system SJL/J mice; conditions: mouse, in vivo
Experimental: An EAE model was established in strain SJL/J mice that is characterized by a relapsing-remitting clinical course. Briefly, mice were immunized subcutaneously at the tail base with 100 μl (200 μg) myelin oligodendrocyte glycoprotein (MOG) peptide dissolved in distilled water and emulsified with an equal volume of complete Freund's adjuvant supplemented with 4 mg/ml Mycobacterium tuberculosis H37Ra. Immediately after immunization, animals received an intravenous injection of 200 ng Bordetella pertussis toxin in 200 μl PBS. Animals were weighed daily and assessed for clinical signs of EAE by two independent observers.
Five mice per group were given either daily i.v. full length EPO (50-500 U/kg) or short EPO-peptide JM-4 peptide (250-500 μg/kg; 5-10 μg/mouse) in PBS, or PBS alone for 9 to 14 days. Blood was collected for 5 weeks to document changes in hematocrit.
Hematocrit can be determined by centrifuging heparinized blood in a capillary tube (microhematocrit tube) at 10,000 rpm for 5 minutes. This separates the blood into layers. The volume of packed red blood cells, divided by the total volume of the blood sample gives the packed cell volume (PCV). Because a tube is used, this can be calculated by measuring the lengths of the layers.

[4] = test system: PLP antigen-induced symptomatic SJL/J EAE mice; experiment: Spinal cord pathology in EAE mice (mononuclear infiltration, SMI-32 staining); type: in vivo; conditions: treated 7 days
Experimental: Groups of PLP antigen-induced symptomatic SJL/J EAE mice were treated with either JM-4 peptide or PBS for 7 days, and spinal cords were removed for pathologic examination.
Monoclonal antibody (SMI-32) (Sternberger Monoclonal Antibodies, Lutherville, Md.) that reacts with a nonphosphorylated epitope in neurofilament H-was used. The reaction is masked when the epitope is phosphorylated. Briefly, frozen tissue sections (16 μm) were acetone-fixed for 10 minutes and air dried. Antigen retrieval was performed using 1× Target Unmasking Fluid (TUF) (Zymed Laboratories, San Francisco, Calif.). Slides were reacted with TUF at 95° C. for 10 minutes, then at room temperature (25° C.) for 10 minutes. SMI-32 primary antibody was diluted (1:5000) with 2% normal horse serum in PBS (1×) and reacted overnight at 4° C. Additional slides were processed without the primary antibody to provide an appropriate control. Slides then were washed twice with PBS (1×) for 3 minutes each wash, and reacted with a biotinylated anti-mouse antibody (Vector Laboratories, Burlingame, Calif.). The slides were washed twice (PBS (1×), 3 minutes each wash), reacted with an avidin-biotin/horseradish peroxidase complex (Vector Laboratories, Burlingame, Calif.) for 30 minutes at room temperature, and washed (PBS (1×), 3 minutes). Slides were visualized with Tyramide signal amplification/Cyanine-3 dye (Perkin Elmer, Waltham, Mass.) at 1:200 dilution in amplification buffer (Perkin Elmer, Waltham, Mass.). Slides then were mounted in glycerol and examined by fluorescence microscopy.
Acute axonal injury in spinal long tract was assessed by SMI-32 staining for nonphosphorylated neurofilaments (FIG. 3, black DAB staining, bottom 2 panels).

EAE in SJL/J mice = experiment: PLP antigen-induced relapsing-remitting EAE, clinical score; type: in vivo
Experimental: JM-4 peptide rapidly reduces neurologic deficit in EAE mice. […] Mice first were immunized with a suboptimal dose of PLP antigen (100 μg) on day 0; the mice developed clinical deficits, and were allowed to recover for about 21 days. Recovered EAE mice received 7 days of treatment with either cyclic JM-4 peptide (i.v. 250 ng/kg) or PBS (i.v.) before receiving a second PLP antigen immunization (100 μg).

[5] = test system: brain injured mice (controlled cortical impact); experiment: Summed area containing TUNEL positive cells within the lesioned hemisphere; type: in vivo, C57BL/6 mice; conditions: 3 days post-injury
Experimental: The effect of JM-4 peptide therapy on the summed area containing TUNEL positive cells within the lesioned hemisphere was evaluated 3 days post-injury. In this experiment, the same TUNEL stained sections (from Example 5) used to quantify the number of TUNEL positive cells were used to quantify the total area containing dying cells within the injured hemisphere.

[6] = test system: acutely symptomatic EAE animals; experiment: JM-4 peptide therapy on acutely symptomatic EAE animals; type: in vivo; conditions: 4 days of therapy
Excerpt: The effect of JM-4 peptide therapy on acutely symptomatic EAE animals was studied. Five sham-treated animals with EAE were compared to five EAE animals that had received 4 days of therapy with JM-4 peptide. The sham-treated animals were barely capable of moving their heads with marked four limb weakness. […] The JM-4 peptide treated animals have some neurologic residua (they have a waddling gait and their tails drag).

TBI mice = experiment: Simple Neuroassessment of Asymmetric Impairment (SNAP) after traumatic brain injury; type: in vivo, C57BL/6 mice; conditions: 10 days post-injury, versus vehicle treated TBI mice
Experimental: SNAP is a scoring system, based on six tests, developed and validated to assess neurological deficits induced in a mouse model of traumatic brain injury. Mice are evaluated to assess neurological parameters for: (1) interaction with a handler, (2) cage grasp, (3) visual placing, (4) pacing/circling, (5) posture and head tilt, and (6) the baton test. The results from each of the six tests are summed to derive the overall SNAP score. SNAP scores are high when asymmetric deficits are apparent; thus, a neurologically intact animal would be expected to have a SNAP score of “0.” SNAP allows for ambiguous results (for example, a score of ‘1’) and test scores of 2 to 5 are assigned when asymmetric deficits were apparent. In addition, a range is allowed when the deficit appears to span more than one definition for a test score; ranges then are averaged to derive the test score (for example, a range of 2 to 3 would be scored as 2.5 for that test). […]
An uninjured mouse would ambulate in a random pattern (for example, turning either to the right or turning to the left when facing a corner). An injured mouse was expected to ambulate in a consistent pattern (for example, consistently turn toward one direction, and not be readily coaxed in the opposite direction). […]
The effect of JM-4 peptide therapy on neurologic deficits (SNAP scores) was evaluated 10 days post-injury by blinded observers.

With “Epoetin Alfa [rhEPO, reference compound]” the “clinical signs of toxicity” value ([1]; SJL/J mice treated with rhEPO) was “developed red-blue ears and tails within 5 to 6 days, typically leading to death”, the “number of dying (TUNEL positive) cells” value [2] was “dramatically reduced” and the effect on hematocrit [3] was “increased markedly within one week”.

With “GCAEHCSLNENITVPDTKV (also: cyclic, mode of cyclisation not given here) [JM-4]” the signs of toxicity ([1]; PLP EAE mice, JM-4 therapy i.v. 250 ng/kg) was “nor were any signs of toxicity observed”, the blood chemistries ([1]; small group treated for 7 days) was “remained unaltered” and the vacuolar changes ([4]; versus PBS) was “fewer vacuolar changes”. The “white matter mononuclear infiltration” value ([4]; versus PBS) was “marked reduction”, the “injured SMI-32 positive axons” value ([4]; versus sham) was “far fewer injured axons” and the “clinical signs in response to the second PLP immunization” value (EAE in SJL/J mice; after 7 days i.v. 250 ng/kg, versus sham, p<0.05) was “less severe clinical signs at a later time”. The “disease severity in long term follow-up” value (EAE in SJL/J mice; after discontinuation of all therapy for 30 days, p<0.001) was “much milder disease”, the “clinical score versus sham treated (saline)” value (EAE in SJL/J mice; recovered EAE mice, 7 days i.v. 250 ng/kg, p<0.05) was “Marked clinical improvement” and the “clinical score after a second seven-day treatment course” value (EAE in SJL/J mice; versus PBS sham treated animals) was “Clinical improvement again was observed”. For the same substance, the “lesional area containing TUNEL positive cells” value [5] was “much reduced”, the “reduction of lesioned volume (area)” value ([5]; versus PBS, p<0.001) was “greater than 50%” and the “neurologic state versus sham-treated animals” value [6] was “mobile and markedly improved”. For the same substance, the “cell death judged by TUNEL positivity” value ([2]; 0.1 μg i.p. daily for 72 hours) was “failed to significantly block cell death”, the “cell death judged by TUNEL positivity” value ([2]; 1 μg i.p. daily for 72 hours) was “failed to significantly block cell death” and the “reduction of neural cell death (TUNEL)” value ([2]; 10 μg i.p., 3 days, FIG. 5A) was about 70%. For the same substance, the “TUNEL positive dying cells versus sham” value ([2]; 10 μg i.p., first treatment 15 minutes post-injury) was “statistically significant neuroprotective effect”, the “TUNEL positive dying cells versus sham” value ([2]; 10 μg i.p., first treatment 3 hours post-injury) was “equally effective” and the “TUNEL positive dying cells versus sham” value ([2]; 10 μg i.p., first treatment 9 hours post-injury) was “equally effective”. For the same substance, the “TUNEL positive dying cells versus sham” value ([2]; 10 μg i.p., treatment delayed 24 hours) was “Very little treatment effect”, the “cell death judged by TUNEL positivity” value ([2]; 10 micrograms i.p. daily for 72 hours, p=0.005) was “significant protected against cell death” and the “cell death judged by TUNEL positivity” value ([2]; 50 micrograms i.p. daily for 72 hours, p=0.005) was “significant protected against cell death”. The “cell death judged by TUNEL positivity” value ([2]; 100 micrograms i.p. daily for 72 hours, p=0.005) was “significant protected against cell death”, the “neuroprotection by TUNEL” value ([2]; 8 days, FIG. 5B) was “neuroprotective” and the “blocking cell death compared with whole molecule EPO” value ([2]; JM-4 10 μg i.p. versus EPO 5000 U/kg i.p.) was “at least as effective as using whole molecule EPO”. The “cell death (TUNEL-positive cells)” value ([2]; PO by gavage, 100 micrograms daily, 3 hours after injury, p=0.01) was “effective blocking cell death”, the therapeutic window ([2]; following severe head trauma) was “at least 9 hours” and the “number of dying (TUNEL positive) cells” value [2] was “dramatically reduced”. The “neurologic deficits (composite SNAP score)” value (TBI mice) was “significant improvement in neurologic deficits”, the effect on hematocrit [3] was “no effect on hematocrit” and the “increase in red blood cell mass” value [3] was “not associated with any increase in red blood cell mass”.
